Consider 1 molecule from patent publication US12083109B2, “Neurokinin antagonists and uses thereof” (California Institute of Technology, priority 2017, dated 2024).

Structures are written as SMILES. “Also recorded” adds a separate entry of the source.

Test [1] concerns the target T1, Nk3R (Mus musculus, UniProt P47937).
T1 sequence (P47937 1-452): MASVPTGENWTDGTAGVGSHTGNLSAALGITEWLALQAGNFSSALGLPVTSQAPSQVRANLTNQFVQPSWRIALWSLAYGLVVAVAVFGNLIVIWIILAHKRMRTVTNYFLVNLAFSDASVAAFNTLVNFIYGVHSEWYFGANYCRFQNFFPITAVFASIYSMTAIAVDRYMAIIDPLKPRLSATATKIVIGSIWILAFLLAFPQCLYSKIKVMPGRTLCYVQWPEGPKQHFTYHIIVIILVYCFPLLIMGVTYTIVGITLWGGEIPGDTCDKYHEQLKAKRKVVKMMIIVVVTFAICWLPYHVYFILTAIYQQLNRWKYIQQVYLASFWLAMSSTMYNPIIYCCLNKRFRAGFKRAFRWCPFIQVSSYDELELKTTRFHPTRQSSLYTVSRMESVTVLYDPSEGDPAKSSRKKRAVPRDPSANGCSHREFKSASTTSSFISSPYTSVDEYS
Nature of the test: Resident intruder assay (aggression), osanetant. It counts as in vivo. Also on record: from tissue; host or cells: Living mice (wild-type C57Bl6/N males, Charles River). Here is the method:
Testing for aggression using the resident intruder assay (Blanchard et al., 2003; incorporated by reference in its entirety) was performed as previously described (Hong et al., 2015; Hong et al., 2014; Lee et al., 2014; incorporated by reference in their entirety). Briefly, experimental mice (“residents”) were transported in their homecage to a novel behavior testing room (cagemates in group housed mice were removed from the homecage prior to transport for this and all other behavioral tests), where they acclimated for 5-15 minutes. Homecages were then slotted into a customized behavioral chamber lit with a surround panel of infrared lights and equipped with two synchronized infrared video cameras (Pointgrey) placed at 90-degree angles from each other to allow for simultaneous behavior recording with a front and top view. Synchronized video was acquired using Hunter 4.0 software (custom, Pietro Perona lab, Caltech). Following a two-minute baseline period, an unfamiliar male BALB/c mouse (“intruder”) was placed in the homecage of the resident for 10 minutes and mice were allowed to freely interact. Group housed BALB/c males were used as intruders because they are a relatively submissive strain, thereby reducing any intruder-initiated fighting. Behavior videos were hand-annotated by an observer blind to experimental conditions (Behavior Annotator, Piotr's MATLAB toolbox; http://vision.ucsd.edu/˜pdollar/toolbox/doc/). Fighting bouts were scored on a frame-by-frame basis and were defined as a frame during which the resident male was engaged in an episode of biting or intense aggressive behavior immediately surrounding a biting episode. Annotation files were then batch analyzed for behavior, including number of fighting bouts, using in-house customized programs in MATLAB (A. Kennedy, Caltech).
(§1) Mice were administered the Nk3R antagonist osanetant (Axon Medchem, Axon 1533) either systemically or intra-brain region. Osanctant was dissolved in saline with 0.1% Tween 20 (vehicle). For systemic administration mice received an intraperitoneal (i.p.) injection (5 mg/kg) 20 minutes prior to behavioral testing. For microinfusions, guide cannulas were removed from mice and replaced with injector cannulas (Plastics One), which protruded 0.5 mm from the tip of the guide cannula. Injectors were attached to 5 μl Hamilton syringes with PE tubing (Plastics One) and mounted on a microinfusion pump (Harvard Apparatus) for controlled infusion of osanetant (0.3 μl vehicle with 375 ng dose per site injected over 6 minutes). For experiments using systemic administration of clozapine-N-oxide (CNO), CNO (Enzo Life Sciences-Biomol, BML-NS105-0005) was dissolved in saline (9 g/L NaCl) and injected (i.p.) at 5 mg/kg for hM4DREADD silencing or 2 mg/kg for hM3DREADD activation 20 minutes prior to behavioral testing. CNO was also administered chronically in drinking water (0.5 mg CNO/100 ml water).

Test [2] addresses T1, Nk3R. Nature of the test: Acoustic startle response, osanetant. It counts as in vivo. The arrangement: from tissue; host or cells: Living mice (wild-type C57Bl6/N males, Charles River). As to conditions: SIS mice; acute systemic osanetant; listed as Osanetant. As for the experimental part: as §1

Turning to `CC(=O)N(C)C1(c2ccccc2)CCN(CCC[C@]2(c3ccc(Cl)c(Cl)c3)CCCN(C(=O)c3ccccc3)C2)CC1` [osanetant, N-(1-{3-[(3R)-1-benzoyl-3-(3,4-dichlorophenyl)piperidin-3-yl]propyl}-4-phenylpiperidin-4-yl)-N-methylacetamide], the “aggression promoted by sexual experience” value at Nk3R [1] (2 weeks co-habitation with a female, no isolation, systemic osanetant) is recorded as “had no effect”. Besides, the SIS-enhanced aggression result at Nk3R [1] (SIS mice (2 weeks isolation), osanetant 5 mg/kg i.p. 20 min before test) was “blocked”; on Nk3R [1] (SIS mice (2 weeks isolation), osanetant 5 mg/kg i.p. 20 min before test, listed as Osanetant) it was “strongly reduced”; at Nk3R [1] (osanetant daily during two-week isolation, tested off-drug) it was “prevented”. The aggression result at Nk3R [1] (osanetant injection into CeA) is given as “unaffected”. In addition, the SIS-induced aggression entry is recorded as “abolished” on Nk3R [1] (osanetant microinfusion into DMH); “selectively blocked” on Nk3R [1] (osanetant microinfusion into DMH, listed as Osanetant); “no effect” at Nk3R [1] (osanetant microinfusion into dBNSTa). In addition, at Nk3R [2], the “SIS-induced enhanced acoustic startle responding” value is “blocked; also recorded: attenuated”.
